Test: in vitro
Conditions: human, hela cells, % viability

SMILES | viability at 28.5 h, 10 µM [%]
COc1ccc([C@@]23CC[C@@H](NC(=O)Nc4ccc(F)c(F)c4)C[C@@H]2N(C)CC3)c(F)c1OC [CBK067405] | 102
Cn1nnc2c(N3CCN(C(=O)c4ccccc4)CC3)ncnc21 [CBK287830] | 90.6
COc1ccc(OC(=O)COc2nc3c(C)cc(C)nc3[nH]2)cc1 [CBK269290] | 106
Cc1ccn2c(CN3CCCC(Cn4ccnc4C)C3)c(C)nc2c1 (stereo not drawn) [CBK281964] | 86.6
Cc1cc(C)c2c(c1)-c1c(ssc1=S)C(C)(C)N2C(=O)CSc1nnc[nH]1 [CBK263038] | 88.5
CC(C)C(=O)N1CCCc2cc(C(O)CN3CCCCC3)ccc21 (stereo not drawn) [CBK282127] | 104
Cc1cc(C(F)(F)F)nn1CC(=O)Nc1sc2c(c1C#N)CCC(C)C2 (stereo not drawn) [CBK304619] | 92.1
Cc1cc(C)c2c(c1)cc(C)c1nn(CC(=O)N3CCCC3)c(=O)n12 [CBK283876] | 85.5
CCN(Cc1ccncc1)C(=O)NCc1cc(C)on1 [CBK155122] | 85.2
CSCCC(NC(=O)c1ccc(S(=O)(=O)N2CC(C)OC(C)C2)cc1)C(=O)O (stereo not drawn) [CBK297101] | 104
CC(=O)NCCOc1nccnc1OCc1ccc(Cl)c(Cl)c1 [CBK161582] | 96.4
O=C(CSc1nc[nH]n1)c1ccc2c(c1)OCCO2 [CBK267360] | 101
CCc1cnc(CNC(=O)NCc2nc3cc(C)ccc3n2C)s1 [CBK306261] | 98.9
Cc1ccc(S(=O)(=O)NCc2c(-c3ccccc3)c3cc(Br)ccc3[nH]c2=O)cc1 [CBK265231] | 98.3
CC(C)Nc1cc(Cl)ncn1 [CBK081511] | 108
Cc1ccc(CN(CCCn2ccnc2)Cc2cncn2C)s1 [CBK283106] | 90.2
CC1CCCC(C)N1C(=O)Cn1cnc2c(Cl)cc(Cl)cc2c1=O (stereo not drawn) [CBK306222] | 85.7
CCN1CCN(C(=O)c2ccc3nc(-c4ccccc4)c(-c4ccccc4)nc3c2)CC1 [CBK269090] | 94.7
Cn1cc(-c2nccnc2OCCN2CCCC2=O)cn1 [CBK107068] | 106
O=C(NC1CCCC1)c1cccnc1 [CBK200236] | 111
CC(=O)c1ccccc1NC(=O)CSCC(=O)O [CBK057752] | 92.2
CN1CCN(c2ccccc2NC(=O)c2cccc(OCc3ccccc3)c2)CC1 [CBK268345] | 102
CN(CC(=O)Nc1ccc([N+](=O)[O-])cc1)S(=O)(=O)c1ccc2ccccc2c1 [CBK267422] | 92.7

SMILES | viability at 28.5 h, 10 µM [%]
Nc1ncnc2c1c(I)cn2[C@@H]1O[C@H](CO)[C@H](O)C1O (stereo partly drawn) [CBK201321] | 16.5
C/C(=N\NC(=O)CCC(=O)Nc1ccc(I)cc1)c1ccc(O)cc1O [CBK261971] | 89.9
Cc1cc(O)n2nc(CC(=O)NCc3nnc4n3CCCCC4)nc2n1 [CBK306989] | 103
Cc1cc2cc(CNc3cc(-c4ccccc4)ccc3O)c(=O)[nH]c2cc1C [CBK286164] | 82.7
COc1cccc(NC(=O)N2CCC(n3c(=O)n(C(=O)Nc4cccc(OC)c4)c4ccccc43)CC2)c1 [CBK149177] | 94.8
Cn1ncc2c1CCCN(C(=O)Cc1ccc3c(c1)CCCO3)C2 [CBK282253] | 87.8
COc1ccc(C2CCCC(N(CCN(C)C)C(=O)Nc3ccc(F)c(F)c3)C2)cc1OC (stereo not drawn) [CBK059339C] | 84.8
CCCCNC(=O)N1CCN(c2ccccc2Cl)CC1 [CBK043777] | 106
Cc1noc(C)c1CCC(=O)N1CC[C@H]2NC(=O)COc3ccccc3C/C=C/C[C@H]2C1 [CBK292115] | 110
CC(C)[C@H]1CN(Cc2cc(C#N)n(C)c2)C[C@@H]1NC(=O)C1CCC1 [CBK306832] | 91.6
Cc1ccc(C2=CCN(CC(=O)NC3CCCC3)CC2)o1 [CBK283605] | 92
O=C(O)CC(C(=O)OC1CCCCC1)N1CCOCC1 (stereo not drawn) [CBK265970] | 95.1
OC(CN1CCC(O)(c2ccc(C(F)(F)F)cc2)CC1)c1ccccc1 (stereo not drawn) [CBK286323] | 102
CC(C)(C)OC(=O)N1CCN(c2cncc(NCc3ccccc3)n2)CC1 [CBK000154] | 112
CC(O)c1cc2n(n1)CCN(C(=O)c1csc(Cc3ccccc3)n1)C2 (stereo not drawn) [CBK307437] | 98.1
O=C(OCCc1cccnc1)N1CCSCC1 [CBK200160] | 103
O=C1CCC(CNS(=O)(=O)c2ccccc2Cl)N1 (stereo not drawn) [CBK304850] | 103
Cc1ccccc1CCNC(=O)c1cccn(CC(=O)N(C)C2CCCCC2)c1=O [CBK286028] | 122
O=S(=O)(O)c1cccc2cccc(I)c12 [CBK301197N] | 89.1
CC(=O)c1c(C(=O)O)[nH]c(C(=O)O)c1C [CBK263934] | 87.4
FC(F)(F)c1nc2ccccc2nc1OCCCc1ccncc1 [CBK115804] | 85.1
CCS(=O)(=O)n1nc(-c2ccc(OC)cc2)nc1SC [CBK266526] | 103
CN1CCC(N2CCN(C(=O)NCCOc3ccccc3)CC2)CC1 [CBK156098] | 86.9

SMILES | viability at 28.5 h, 10 µM [%]
CCc1nccn1CCC(=O)NC1CCN(c2ccc(F)cc2)CC1 [CBK306760] | 90.1
O=C(Cc1csc(-c2ccc(Cl)cc2)n1)Nc1ccccn1 [CBK107364] | 85.8
Cc1ccc(S(=O)(=O)N(CC(=O)O)c2ccc(Br)cc2)cc1 [CBK287125] | 95.3
C/C(=N\NC(=O)CC1(C)OCCO1)c1oc(C)cc1C [CBK022234] | 99.1
CCc1cc(-c2[nH]nc(C)c2Oc2ccc(C(C)C)cc2)c(O)cc1O [CBK264940] | 90.7
COc1ccc([C@@]23CC[C@@H](NC(=S)NC(C)=O)C[C@@H]2N(Cc2ccccc2)CC3)cc1OC [CBK025503T] | 90.2
O=C(CCc1cccnc1)Nc1ccc(Oc2ccccc2)cc1 [CBK295168] | 99.8
COCCNc1nc(-c2ccccc2OC)ccc1C(=O)NCCNC(C)=O [CBK105974] | 100
O=C(Cn1cncn1)N[C@H]1C2CCCCC2[C@@H]1c1ccccc1 (stereo partly drawn) [CBK283011] | 93.3
CC(C)(C)NC(=O)CN1CCC(c2ccc(F)cc2)CC1 [CBK283629] | 90.1
COc1ncc(-c2cnc(N)c(-c3ccc(C=O)cc3)n2)c(OC)n1 [CBK064110] | 94.1
COc1ccc(-c2nc(NC(=O)c3ccccn3)cnc2-c2cccc(C(F)(F)F)c2)cc1 [CBK036785] | 110
CCc1cc2c(=O)c(-c3cnn(-c4ccccc4)c3)c(C(F)(F)F)oc2c(CN2CCCCC2)c1O [CBK264458] | 91.7
O=C(O)CNC(=O)Cn1ccc2ccc(OCc3ccccc3)cc21 [CBK286644] | 85.9
Clc1nsnc1N1CCOCC1 [CBK019133] | 101
Cc1noc(NS(=O)(=O)c2ccc(NC(=O)COc3ccc(Cl)cc3Cl)cc2)c1C [CBK262142] | 89.3
COc1cc(CNC(C)c2ccccc2)ccc1OCC(N)=O (stereo not drawn) [CBK269982C] | 92.8
CCn1nc(C)c(C(C)NC(=O)c2ccn(C(F)F)n2)c1C (stereo not drawn) [CBK281534] | 79.8
CC(=O)N(CN1C(=O)CCC1=O)C(CC(C)C)C(=O)O (stereo not drawn) [CBK286553] | 87.7
O=C(NCc1c(Cl)cccc1Cl)N1CCCC(CO)C1 (stereo not drawn) [CBK156054] | 95.7
CCOC(=O)N1CCC(NC(=O)N2CCCC(C(=O)N(CC)CC)C2)CC1 (stereo not drawn) [CBK156159] | 109
CCN(CC)S(=O)(=O)c1ccc(Cl)c(C(=O)Oc2cccc3cccnc23)c1 [CBK263205] | 118
CCCn1c(SCC(=O)N(C)Cc2ccc(OCC)cc2)n[nH]c1=O [CBK295132] | 90

SMILES | viability at 28.5 h, 10 µM [%]
CCCNC(=O)c1ccc(C)c(NC(=O)N[C@@H](CO)c2ccccc2)c1 [CBK306609] | 96.2
CN(C)CCN(C)c1cncc(-c2ccc3ccccc3c2)n1 [CBK037146] | 77.7
Cn1c(=O)[nH]c2c(nc(-c3ccccc3)n2C)c1=O [CBK287855] | 78.2
CCOC(=O)c1c(NC(=O)CSc2nc3ccccc3s2)sc2c1CCC2 [CBK263220] | 93
CCN1C(=O)CC2(C1=O)C(=O)N(CCCN(C)S(C)(=O)=O)c1ccccc12 (stereo not drawn) [CBK075519] | 101
O=C(O)c1cccc(CSc2nnc(Cc3ccccc3)o2)c1 [CBK268060] | 92
O=C(Nc1ccccc1C(=O)O)c1cccc(-n2cnnc2)c1 [CBK269769] | 85.4
O=C(c1c(F)cccc1F)N1C2CCC1c1snnc1C2 (stereo not drawn) [CBK284990] | 91.5
O=C(c1cncnc1)N1CCC2(CCN(Cc3ccccc3)CC2)C1 [CBK136782] | 101
Nc1nonc1C(=O)NCCNCc1cccs1 [CBK267305] | 95.2
Cc1ccc([N+](=O)[O-])cc1NC(=O)C1Cc2ccccc2CN1C(=O)OCc1ccccc1 (stereo not drawn) [CBK262463] | 100
CC(NC(=O)c1cc2ccccc2c(=O)[nH]1)c1ccc(-c2ccccc2)cc1 (stereo not drawn) [CBK297936] | 86.4
Cc1oc(C(=O)O)cc1CSC(C)C(=O)O (stereo not drawn) [CBK263556] | 93.8
Oc1cnnc(Nc2ccc(Nc3ccccc3)cc2)n1 [CBK287921] | 101
Cc1cn(CC(=O)N2CCN(c3ncccn3)CC2)c(=O)[nH]c1=O [CBK144513] | 105
O=C(O)c1ccc(CNCc2ccc(-c3ccc(F)cc3)o2)cc1 [CBK269622C] | 90.9
Cc1[nH]c2ccccc2c1C(=O)CSc1nc2scc(-c3ccco3)c2c(=O)n1-c1ccccc1 [CBK267933] | 93.3
Cc1noc(C)c1C(=O)Nc1ccc(S(=O)(=O)NCCc2ccccc2)cc1 [CBK268183] | 92.8
Cc1ccc(S(=O)(=O)NCCn2cnc([N+](=O)[O-])n2)cc1 [CBK266270] | 96.3
CCCCNS(=O)(=O)c1ccccc1[N+](=O)[O-] [CBK261456] | 93.1
O=S(=O)(/N=C/N1CCCC1)c1ccccc1 [CBK023272] | 89.4
